From US20230011052A1, “METHOD AND COMPOSITIONS FOR REGULATED ARMORING OF CELLS” (Senti Biosciences, Inc., priority 2019, published 2023)
“And” between values parts separate entries of the source, which are not always exact repeats. Identical values can stand only once. Like-named read-outs stand apart in the source and are kept apart here.

Key:
[1] = target: T1, ERT2 domain (Homo sapiens, UniProt P03372, G400V/L544A/M543A); assay: Tamoxifen (ERT2) regulatable TF reporter and CAR expression in T cells (MFI); format: cell-based; conditions: T cells with ERT2 regulatable TF 565 and reporter alone (1066) or on construct also encoding a CAR (2235); 1, 0.25, 0.1 uM or no drug; Day 9 MFI
T1 construct: expressed in transfected cells; host or cells: CD4/CD8 T cells, virally transduced
T1 sequence (P03372 311-547 G400V/M543A/L544A limits assumed): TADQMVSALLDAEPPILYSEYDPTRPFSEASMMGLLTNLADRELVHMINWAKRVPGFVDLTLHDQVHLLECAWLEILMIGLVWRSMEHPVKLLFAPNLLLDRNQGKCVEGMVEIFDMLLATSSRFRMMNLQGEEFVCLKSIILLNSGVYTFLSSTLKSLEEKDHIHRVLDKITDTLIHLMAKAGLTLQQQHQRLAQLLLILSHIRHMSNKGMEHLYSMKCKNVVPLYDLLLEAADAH
Excerpt: Various regulatable TF (also referred to as an activation-conditional control polypeptide (ACP) for drug-inducible formats or “synTF”) and expression cassettes were constructed as shown in FIG. 17A. […] The cassettes were cloned into a viral vector and used to produce virus.
On Day 0, CD4/CD8 T cells (FL00711) were thawed and activated with Dynabeads (3:1) in complete T cell media (Optimizer+Supplements—Gibco+5% human serum)+IL-2 (100 Units/ml). On Day 2, cells were transduced with 1×10^5 GV of virus. […] Florescent median intensity (MFI) was assessed of Day 9.

[2] = system: T cells engineered with drug-inducible ACP (NS3/NS4 protease cleavage site); assay: In vivo regulated armoring: plasma hIL-12 (Luminex) and circulating human T cells (flow cytometry); design: species or system NSG mice; conditions: 25 mg/kg Grz IP, BID; T cells with SB01845 & SB02357
Procedure: Negative controls were untransduced T cells. […] Dosing: Drug treated mice received 25 mg/kg Grz at each dosing time point; vehicle treated mice received equivalent volume of vehicle; all Grz dosing administered IP. Dosing continued BID on days 2-4. […] Mice were bled on day 4 and sacrificed/bled on day 5.

[3] = system: target cells; assay: T cell killing assay (LDH release); format: cell-based; conditions: +/- 2 μM GRZ for 48 hours
Procedure: For T cell killing assays, on Day 0 T cells were seeded at 1e6/mL+/−2 μM of GRZ for 48 hours to induce payload. On Day 2, target cells were counted and 35K were seeded per well in a 96 well plate for 4-6 hrs in target cell media. Then target cell media was removed and T cells were counted and 35K CAR normalized T cells were seeded [E:T— 1:1] in 200 µl of Optimizer media overnight. On Day 3, cells were transferred to a V-bottom plate, spun down, and supernatant harvested to determine killing activity using an LDH assay (CyQUANT LDH Cytotoxicity Assay; Life Technologies).

[4] = system: T cells engineered with drug-inducible ACP (inducible IL-12); format: in vivo; conditions: for Human T cells in the blood (hCD3+: hCD45+): inducible IL-12 T cells, individual mice
Procedure: Negative controls were untransduced T cells. […] All Grz dosing was administered IP.
A first series of Grazoprevir (Grz) dosing regimens were assessed, as described in Table 25.

[5] = system: T cells engineered with drug-inducible ACP (inducible IL-12)
Procedure: Grazoprevir potassium salt was dissolved sequentially in DMSO, PEG400, and PBS to reach 10 mg/mL. All Grz dosing was administered IP. 20e6 T cells per mouse were injected by tail vein injection, as indicated. Luminex assay was run to assess levels of hIL-12 in mouse plasma. Presence of human T cells in mouse blood was analyzed by flow cytometry.
Following the results of the experiments above, animals were dosed (IP) 60 mg/kg for 3 days once a day. Recombinant (hIL-2 1×10^4 IU) was also administered as indicated.

## CC/C(=C(\c1ccccc1)c1ccc(OCCNC)cc1)c1ccccc1 [N-desmethyltamoxifen]
[1]
  reporter (mCherry) expression: did not result expression of the reporter

## C=C[C@@H]1C[C@]1(NC(=O)[C@@H]1C[C@@H]2CN1C(=O)[C@H](C(C)(C)C)NC(=O)O[C@@H]1C[C@H]1CCCCCc1nc3ccc(OC)cc3nc1O2)C(=O)NS(=O)(=O)C1CC1.O [grazoprevir]
[2]
  hIL-12 in the plasma of mice above vehicle: ~100 fold
[3]
  difference in killing in the presence or absence of grazoprevir: No noticeable differences in killing
[4]; Day 4, 25 mg/kg BID Grz IP, 25 mg/kg
  Human T cells in the blood (hCD3+: hCD45+): 5.42 % of live cells and 0.08 % of live cells and 4.07 % of live cells and 3.61 % of live cells and 3.88 % of live cells and 5.91 % of live cells and 4.2 % of live cells and 3.14 % of live cells
[4]; Day 4, 50 mg/kg Grz IP, 50 mg/kg
  Human T cells in the blood (hCD3+: hCD45+): 4.09 % of live cells and 2.96 % of live cells and 3.7 % of live cells and 1.62 % of live cells and 4.16 % of live cells and 2.57 % of live cells and 4.55 % of live cells and 2.58 % of live cells
[4]; Day 4, 75 mg/kg Grz IP, 75 mg/kg
  Human T cells in the blood (hCD3+: hCD45+): 2.95 % of live cells and 3.14 % of live cells and 2.6 % of live cells and 0* % of live cells (2×) and 2.41 % of live cells and 1.43 % of live cells and 2.87 % of live cells
[4]; Day 4, 25 + 50 mg/kg Grz IP, 50 mg/kg
  Human T cells in the blood (hCD3+: hCD45+): 2.18 % of live cells and 6.98 % of live cells and 6.53 % of live cells and 13 % of live cells and 2.24 % of live cells and 4.72 % of live cells and 5.64 % of live cells and 7.89 % of live cells
[4]; Day 8
  serum IL-12 levels: returned to baseline
[4]; Day 8, 25 mg/kg BID Grz IP, 25 mg/kg
  Human T cells in the blood (hCD3+: hCD45+): 6.78 % of live cells and 0.077 % of live cells and 3.63 % of live cells and 2.46 % of live cells and 2.07 % of live cells and 3.45 % of live cells and 2.27 % of live cells and 4.09 % of live cells
[4]; Day 8, 50 mg/kg Grz IP, 50 mg/kg
  Human T cells in the blood (hCD3+: hCD45+): 7.36 % of live cells and 10.9 % of live cells and 7.31 % of live cells and 8.1 % of live cells and 9.23 % of live cells and 5.88 % of live cells and 6.63 % of live cells and 7.34 % of live cells
[4]; Day 8, 75 mg/kg Grz IP, 75 mg/kg
  Human T cells in the blood (hCD3+: hCD45+): 8.19 % of live cells and 9.67 % of live cells and 6.55 % of live cells and 0.028 % of live cells and 11.6 % of live cells and 4.7e−003 % of live cells and 11 % of live cells and 3.79 % of live cells
[4]; Day 8, 25 + 50 mg/kg Grz IP, 50 mg/kg
  Human T cells in the blood (hCD3+: hCD45+): 7.09 % of live cells and 7.85 % of live cells and 9 % of live cells and 12 % of live cells and 6.34 % of live cells and 7.02 % of live cells and 8.65 % of live cells and 5.04 % of live cells
[4]; Day 12
  mice found dead: 2 of 8
  serum IL-12 levels: remained stable
[4]; Day 12, 25 mg/kg BID Grz IP, 25 mg/kg
  Human T cells in the blood (hCD3+: hCD45+): 13.5 % of live cells and 0.21 % of live cells and 13.3 % of live cells and 9.36 % of live cells and 9.33 % of live cells and 14 % of live cells and 16.1 % of live cells and 13.8 % of live cells
[4]; Day 12, 25 + 50 mg/kg Grz IP, 50 mg/kg
  Human T cells in the blood (hCD3+: hCD45+): 10.9 % of live cells and 12.2 % of live cells and 11.1 % of live cells and 16.3 % of live cells and 2.61 % of live cells and 9.13 % of live cells
[5]; 60 mg/kg IP, these mice received only 30 mg/kg on day 3
  mice that lost ~15% weight during the first week of dosing: 3 of 10
[5]; Day 4, first on week
  plasma IL-12: significant Grazoprevir dose dependent induction of IL-12
[5]; Day 4, 60 mg/kg IP once a day for 3 days
  injected human T cells in blood when Grz was administered: significantly less
[5]; Day 11, off week
  plasma IL-12 levels between drug and no-drug groups: equivalent
[5]; Day 18, second on week
  plasma IL-12: further significant Grazoprevir dose dependent induction of IL-12
[5]; Days 11, 18, and 25
  injected human T cells in blood, inducible system groups with vs without Grz: no difference
[5]; necropsy
  organ findings at end time point: pale kidneys, thick diaphragm, enlarged spleen, thick liver lobe, white/yellow lump growing inside the liver, and organs (liver, stomach, spleen) sticking with peritoneal wall and each other
[5]; time course
  body weight: transient weight loss
